Patent US20140179800A1, “Inhibition of the Survival of Bladder Cancer by Cyclohexenone Compounds from Antrodia Camphorata” (Golden Biotechnology Corporation, priority 2009, published 2014)

Test system: bladder cancer cell line TSGH-8301
Assay: In vitro survival assay (MTT) for anti-bladder cancer effects
Assay type: cell-based
Conditions: TSGH-8301 human bladder carcinoma cells, 48 hours, survival rate
Procedure: Inhibiting effects of bladder cancer cells by cyclohexenone compounds of Antrodia camphorata from example 1 were assessed according to the anticancer-drug screening model of National Cancer Institute (NCI). The compound 4-hydroxy-2,3-dimethoxy-6-methyl-5-(3,7,11-trimethyl-dodeca-2,6,10-trienyl)-cyclohex-2-enone from example 1 was added into the culture media of bladder cancer cell line TSGH-8301 to determine the survival rates. Survival of cell was analyzed using MTT assay. TSGH-8301 cell line was a human bladder carcinoma cell line.
MTT assay is commonly used to analyze cell proliferation, survival rate of viable cells and cytotoxicity. MTT (3[4,5-dimethylthiazol-2-yl]-2,5-diphenyltetrazolium bromide) is a yellow dye which can be converted to water-insoluble purple formazan on the reductive cleavage of its tetrazolium ring by the succinate tetrazolium reductase in mitochondria of cells. The amount of formazan produced is used to detect the number of viable cells and calculate the survival rates.
The TSGH-8301 cells were cultivated in DMEM medium supplemented with 10% fetal bovine serum, 100 U/ml of Penicillin and 100 μg/ml of Streptomycin at 37° C., 5% CO2 for 24 hours. Proliferated cells were washed once with PBS, treated with 1× trypsin-EDTA, and centrifuged at 1200 rpm for 5 min. […] The absorbances were measured at 570 nm with an ELISA Reader to determine the survival rates.

For `COC1=C(OC)C(O)C(C/C=C(\C)CC/C=C(\C)CCC=C(C)C)C(C)C1=O` (stereo not shown) [formula 2, 4-hydroxy-2,3-dimethoxy-6-methyl-5-(3,7,11-trimethyl-dodeca-2,6,10-trienyl)-cyclohex-2-enone], which IC50 is on record?
Its IC50 is 1.05 µg/mL.
